According to US8889704B2 (Array BioPharma Inc., priority 2011, dated 2014):
Structures can show the parent of a compound that is named as a salt.

Assays:
Format in all cases: biochemical
[1] = molecular target: T1, GST-tagged recombinant full-length human Pim-2 (Homo sapiens, UniProt Q9P1W9); assay: PIM-2 Assay (as Example A); conditions: averaged IC50; 4 μM ATP, 1.0 μM PIM2tide, 1.5 nM Pim-2
T1 construct: GST-tagged recombinant full-length human Pim-2; GST
Procedure, shortened: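 Radiometric filter-binding assay: GST-tagged full-length human Pim-2 (1.5 nM) phosphorylates 1.0 μM PIM2tide with 4 μM [γ-33P]ATP for 60 min at 22 °C in pH 7.4 MOPS buffer, 2% DMSO. 10-point 3-fold dilutions from 10 μM top dose; IC50 from 4-parameter fit of percent of control.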

[2] = molecular target: PIM-1 (Homo sapiens, UniProt P11309); assay: Enzyme PIM-1 Assay ([33P]ATP incorporation into PIM2tide, filter plate); conditions: averaged IC50; 35 μM ATP, 7.5 μM PIM2tide, 0.25 nM PIM-1, 60 min at 22° C.
Procedure, shortened: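 Radiometric assay: 0.25 nM PIM-1 phosphorylates 7.5 μM PIM2tide with 35 μM [γ-33P]ATP in 20 mM MOPS pH 7.4, 10 mM MgCl2, 1 mM DTT, 0.005% Tween-20, 60 min at 22 °C. Product captured on P81 filters, scintillation counted; 10-point 3-fold curve from 10 μM top, 2% DMSO, IC50 by 4-parameter logistic fit of POC.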

[3] = molecular target: recombinant rat PIM-3 (Rattus norvegicus, UniProt O70444); assay: PIM-3 Assay (as Example A); conditions: averaged IC50; 30 μM ATP, 3.75 μM PIM2tide, 0.5 nM PIM-3
Procedure, shortened: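 Recombinant rat PIM-3 (0.5 nM) with 3.75 μM PIM2tide and 30 μM [γ-33P]ATP in MOPS pH 7.4 buffer, 60 min at 22 °C; labelled peptide captured on phosphocellulose filters and counted by scintillation. 10-point curve (top dose 10 μM, 2% DMSO); IC50 from 4-parameter fit of percent of control.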

Sequence of PIM-1 (P11309 whole entry, species assumed): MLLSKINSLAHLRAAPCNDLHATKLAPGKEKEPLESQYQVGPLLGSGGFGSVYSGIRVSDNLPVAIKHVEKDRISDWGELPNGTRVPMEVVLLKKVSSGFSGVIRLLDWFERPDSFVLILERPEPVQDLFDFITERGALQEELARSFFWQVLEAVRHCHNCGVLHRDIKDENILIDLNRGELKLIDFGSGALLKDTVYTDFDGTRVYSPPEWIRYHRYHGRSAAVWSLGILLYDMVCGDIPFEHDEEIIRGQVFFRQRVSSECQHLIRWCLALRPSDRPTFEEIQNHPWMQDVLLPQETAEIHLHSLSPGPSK
T1 sequence (Q9P1W9 whole entry): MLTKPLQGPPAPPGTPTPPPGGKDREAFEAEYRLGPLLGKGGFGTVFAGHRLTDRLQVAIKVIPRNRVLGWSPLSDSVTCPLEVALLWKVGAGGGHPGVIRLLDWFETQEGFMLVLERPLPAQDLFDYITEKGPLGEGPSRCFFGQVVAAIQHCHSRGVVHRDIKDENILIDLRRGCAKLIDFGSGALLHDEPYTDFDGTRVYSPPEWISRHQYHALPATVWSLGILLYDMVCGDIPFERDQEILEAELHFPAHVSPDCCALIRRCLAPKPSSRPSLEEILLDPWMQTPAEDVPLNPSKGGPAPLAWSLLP

| IC50 [1] [nM] | IC50 [2] [nM] | IC50 [3] [nM] | Structure (SMILES) |
| --- | --- | --- | --- |
| 244 | 0.14 | 0.2 | Cc1nn(C)cc1-c1cc2nc(-c3nnc4ccc([C@@H](N5CC[C@H](N)C5)C(F)(F)F)cn34)ccc2cc1F [Example 205, (3 S)-1-((1R)-1-(3-(7-(1,3-dimethyl-1H-pyrazol-4-yl)-6-fluoroquinolin-2-yl)-[1,2,4]triazolo[4,3-a]pyridin-6-yl)-2,2,2-trifluoroethyl)pyrrolidin-3-amine dihydrochloride] |
| 55 | 0.09 | 0.1 | Cc1c(-c2cc3nc(-c4nnc5ccc([C@@H](N6CC[C@H](N)C6)C(F)(F)F)cn45)ccc3cc2F)cnn1C [Example 206, (3 S)-1-((1R)-1-(3-(7-(1,5-dimethyl-1H-pyrazol-4-yl)-6-fluoroquinolin-2-yl)-[1,2,4]triazolo[4,3-a]pyridin-6-yl)-2,2,2-trifluoroethyl)pyrrolidin-3-amine dihydrochloride] |
| > 1000 | 0.41 | 2.5 | N[C@H]1CCN([C@H](c2ccc3nnc(-c4ccc5cccc(O)c5n4)n3c2)C(F)(F)F)C1 [Example 208, 2-(6-((R)-1-((S)-3-aminopyrrolidin-1-yl)-2,2,2-trifluoroethyl)-[1,2,4]triazolo[4,3-a]pyridin-3-yl)quinolin-8-ol dihydrochloride] |
| 176 | 0.55 | 0.6 | Cc1c(C(=O)NC(C)C)ccc2ccc(-c3nnc4ccc([C@@H](N5CC[C@H](N)C5)C(F)(F)F)cn34)nc12 [Example 209, 2-(6-((R)-1-((S)-3-aminopyrrolidin-1-yl)-2,2,2-trifluoroethyl)-[1,2,4]triazolo[4,3-a]pyridin-3-yl)-N-isopropyl-8-methylquinoline-7-carboxamide] |
| > 1000 | > 100 | > 100 | COc1cc2nc(-c3nnc4ccc([C@@H](N5C[C@@H](N)[C@@H](F)C5)C(F)(F)F)cn34)ccc2cc1F [Example 210, (3R,4S)-4-fluoro-1-((R)-2,2,2-trifluoro-1-(3-(6-fluoro-7-methoxyquinolin-2-yl)-[1,2,4]triazolo[4,3-a]pyridin-6-yl)ethyl)pyrrolidin-3-amine dihydrochloride] |
| 645 | 0.52 | 4 | COc1cc2nc(-c3nnc4ccc([C@@H](N5C[C@@H](N)[C@H](F)C5)C(F)(F)F)cn34)ccc2cc1F [Example 211, (3R,4R)-4-fluoro-1-((R)-2,2,2-trifluoro-1-(3-(6-fluoro-7-methoxyquinolin-2-yl)-[1,2,4]triazolo[4,3-a]pyridin-6-yl)ethyl)pyrrolidin-3-amine dihydrochloride] |
| 72 | 0.14 | 0.3 | CO[C@@H](C)COc1cccc2ccc(-c3nnc4ccc([C@@H](N5CC[C@H](N)C5)C(F)(F)F)cn34)nc12 [Example 212, (S)-1-((R)-2,2,2-trifluoro-1-(3-(8-((S)-2-methoxypropoxy)quinolin-2-yl)-[1,2,4]triazolo[4,3-a]pyridin-6-yl)ethyl)pyrrolidin-3-amine dihydrochloride] |
| > 1000 | 0.64 | 8 | Cc1cc(-c2ccc3ccc(-c4nnc5ccc([C@@H](N6CC[C@H](N)C6)C(F)(F)F)cn45)nc3c2C)n(C)n1 [Example 213, (3S)-1-((1R)-1-(3-(7-(1,3-dimethyl-1H-pyrazol-5-yl)-8-methylquinolin-2-yl)-[1,2,4]triazolo[4,3-a]pyridin-6-yl)-2,2,2-trifluoroethyl)pyrrolidin-3-amine] |
| 138 | 0.38 | 0.4 | Cc1c(-c2cnn(C)c2C)ccc2ccc(-c3nnc4ccc([C@@H](N5CC[C@H](N)C5)C(F)(F)F)cn34)nc12 [Example 214, (3S)-1-((1R)-1-(3-(7-(1,5-dimethyl-1H-pyrazol-4-yl)-8-methylquinolin-2-yl)-[1,2,4]triazolo[4,3-a]pyridin-6-yl)-2,2,2-trifluoroethyl)pyrrolidin-3-amine dihydrochloride] |
| > 1000 | 0.47 | 3.1 | N[C@H]1CCN([C@H](c2ccc3nnc(-c4ccc5cc(F)c(OC(F)F)cc5n4)n3c2)C(F)(F)F)C1 [Example 215, (S)-1-((R)-1-(3-(7-(difluoromethoxy)-6-fluoroquinolin-2-yl)-[1,2,4]triazolo[4,3-a]pyridin-6-yl)-2,2,2-trifluoroethyl)pyrrolidin-3-amine dihydrochloride] |
| 56 | 0.38 | 0.8 | CC(C)Oc1cc(F)cc2ccc(-c3nnc4ccc([C@H](N5CC[C@](C)(N)C5)C(F)(F)F)cn34)nc12 [Example 216, (S)-3-methyl-1-((S)-2,2,2-trifluoro-1-(3-(6-fluoro-8-isopropoxyquinolin-2-yl)-[1,2,4]triazolo[4,3-a]pyridin-6-yl)ethyl)pyrrolidin-3-amine dihydrochloride] |
| 40 | 0.32 | 0.4 | COc1cccc2ccc(-c3nnc4ccc([C@H](N5CC[C@](C)(N)C5)C(F)(F)F)cn34)nc12 [Example 217, (S)-3-methyl-1-((S)-2,2,2-trifluoro-1-(3-(8-methoxyquinolin-2-yl)-[1,2,4]triazolo[4,3-a]pyridin-6-yl)ethyl)pyrrolidin-3-amine dihydrochloride] |
| 33 | 0.26 | 0.4 | COc1cc(F)cc2ccc(-c3nnc4ccc([C@H](N5CC[C@](C)(N)C5)C(F)(F)F)cn34)nc12 [Example 218, (S)-3-methyl-1-((S)-2,2,2-trifluoro-1-(3-(6-fluoro-8-methoxyquinolin-2-yl)-[1,2,4]triazolo[4,3-a]pyridin-6-yl)ethyl)pyrrolidin-3-amine] |
| 253 | 0.26 | 1.2 | N[C@H]1CCN([C@H](c2ccc3nnc(-c4ccc5cccc(OCCO)c5n4)n3c2)C(F)(F)F)C1 [Example 219, 2-(2-(6-((R)-1-((S)-3-aminopyrrolidin-1-yl)-2,2,2-trifluoroethyl)-[1,2,4]triazolo[4,3-a]pyridin-3-yl)quinolin-8-yloxy)ethanol dihydrochloride] |
| 72 | 0.28 | 0.4 | CCOc1cc2nc(-c3nnc4ccc([C@H](N5CC[C@](C)(N)C5)C(F)(F)F)cn34)ccc2cc1F [Example 220, (S)-1-((S)-1-(3-(7-ethoxy-6-fluoroquinolin-2-yl)-[1,2,4]triazolo[4,3-a]pyridin-6-yl)-2,2,2-trifluoroethyl)-3-methylpyrrolidin-3-amine] |
| 128 | 0.41 | 1 | COC[C@@H](C)Oc1cc(F)cc2ccc(-c3nnc4ccc([C@H](N5CC[C@](C)(N)C5)C(F)(F)F)cn34)nc12 [Example 221, (S)-3-methyl-1-((S)-2,2,2-trifluoro-1-(3-(6-fluoro-8-((R)-1-methoxypropan-2-yloxy)quinolin-2-yl)-[1,2,4]triazolo[4,3-a]pyridin-6-yl)ethyl)pyrrolidin-3-amine dihydrochloride] |
| 77 | 0.22 | 0.2 | Cn1cc(-c2ccc3ccc(-c4nnc5ccc([C@H](N6CC[C@](C)(N)C6)C(F)(F)F)cn45)nc3c2)cn1 [Example 222, (S)-3-methyl-1-((S)-2,2,2-trifluoro-1-(3-(7-(1-methyl-1H-pyrazol-4-yl)quinolin-2-yl)-[1,2,4]triazolo[4,3-a]pyridin-6-yl)ethyl)pyrrolidin-3-amine dihydrochloride] |
| 62 | 0.29 | 0.3 | C[C@]1(N)CCN([C@@H](c2ccc3nnc(-c4ccc5ccc(C6CC6)cc5n4)n3c2)C(F)(F)F)C1 [Example 223, (S)-1-((S)-1-(3-(7-cyclopropylquinolin-2-yl)-[1,2,4]triazolo[4,3-a]pyridin-6-yl)-2,2,2-trifluoroethyl)-3-methylpyrrolidin-3-amine dihydrochloride] |
| 94 | 0.36 | 0.7 | CC(C)(CCO)c1cccc2ccc(-c3nnc4ccc([C@@H](N5CC[C@H](N)C5)C(F)(F)F)cn34)nc12 [Example 224, 3-(2-(6-((R)-1-((S)-3-aminopyrrolidin-1-yl)-2,2,2-trifluoroethyl)-[1,2,4]triazolo[4,3-a]pyridin-3-yl)quinolin-8-yl)-3-methylbutan-1-ol dihydrochloride] |
| 139 | 0.27 | 1.1 | CC(C)(O)c1cccc2ccc(-c3nnc4ccc([C@@H](N5CC[C@H](N)C5)C(F)(F)F)cn34)nc12 [Example 225, 2-(2-(6-((R)-1-((S)-3-aminopyrrolidin-1-yl)-2,2,2-trifluoroethyl)-[1,2,4]triazolo[4,3-a]pyridin-3-yl)quinolin-8-yl)propan-2-ol] |
| 235 | 0.27 | 0.5 | N[C@H]1CCN([C@H](c2ccc3nnc(-c4ccc5cc(F)c(OCC(F)(F)F)cc5n4)n3c2)C(F)(F)F)C1 [Example 226, (S)-1-((R)-2,2,2-trifluoro-1-(3-(6-fluoro-7-(2,2,2-trifluoroethoxy)quinolin-2-yl)-[1,2,4]triazolo[4,3-a]pyridin-6-yl)ethyl)pyrrolidin-3-amine dihydrochloride] |
